Tests used:
[1] = tested on: Escherichia coli; assay: Effect on the intestinal bacterial colonies: number of Escherichia coli in feces; format: in vivo, Escherichia coli (feces of female ICR mice); conditions: for Log10 value of the number of bacterial cells/g of feces, Escherichia coli: oral, 500 mg/kg/day for 2 days, feces one day after administration, before administration 7.0
Protocol: (§1) After collecting the feces of a group of mice, each of the compounds represented by the formula (I) was orally administered to each of the group for 2 continued days at a daily dose rate of 500 mg per kg body weight, and the feces were again collected one day after the administration. Each portion of the thus collected, two kinds of the feces was cultured at 25° C. or 37° C. in a variety of culture media for one to five days to see the state of growth of the following bacteria which are present habitually in the intestine of the mouse: Escherichia coli, Pseudomonas aeruginosa, a streptococcus bacterial species, a lactobacillis bacteria, Lactobacillus bifidus and a bacterioides bacteria.
(§2) Each of the compounds, respectively produced in Examples 1 to 6 was orally administered for two continued days at a daily dosage of 500 mg/kg body weight to each of five female ICR mice of a group after 6 weeks of birth.
(§3) Each of the two fecal specimens respectively collected before and after one day of the administration was diluted with 100 times by weight of an anaerobic diluent (a phosphoric buffer solution) and was ground in a mortar, and 0.1 ml of the ground material was smeared on each of the following culture media for the following bacteria and the thus inoculated culture media were incubated under the following conditions. Thereafter, the number of the following bacteria was determined on each culture medium.
DHL agar 37° C., for 1 day, […]

[2] = tested on: Pseudomonas aeruginosa; assay: Effect on the intestinal bacterial colonies: number of Pseudomonas aeruginosa in feces; format: in vivo, Pseudomonas aeruginosa (feces of female ICR mice); conditions: oral, 500 mg/kg/day for 2 days; feces one day after administration; before administration <3.0
Protocol: as §1, §2, §3
NAC agar 37° C., for 1 day, […]

[3] = tested on: A species of Streptococcus; assay: Effect on the intestinal bacterial colonies: number of a species of Streptococcus in feces; format: in vivo, Streptococcus (feces of female ICR mice); conditions: oral, 500 mg/kg/day for 2 days; feces one day after administration; before administration 6.4
Protocol: as §1, §2, §3
a species of TATAC agar 37° C., for 1 day, […]

[4] = tested on: A species of Lactobacillus; assay: Effect on the intestinal bacterial colonies: number of a species of Lactobacillus in feces; format: in vivo, Lactobacillus (feces of female ICR mice); conditions: for Log10 value of the number of bacterial cells/g of feces, a species of Lactobacillus: oral, 500 mg/kg/day for 2 days, feces one day after administration, before administration 9.0
Protocol: as §1, §2, §3
a species of LBS agar 37° C., for 5 days, […]

[5] = tested on: Lactobacillus bifidus; assay: Effect on the intestinal bacterial colonies: number of Lactobacillus bifidus in feces; format: in vivo, Lactobacillus bifidus (feces of female ICR mice); conditions: oral, 500 mg/kg/day for 2 days; feces one day after administration; before administration 8.0
Protocol: as §1, §2, §3
BS agar 37° C., for 5 days, […]

[6] = tested on: A species of Bacterioides; assay: Effect on the intestinal bacterial colonies: number of a species of Bacterioides in feces; format: in vivo, Bacteroides (feces of female ICR mice); conditions: oral, 500 mg/kg/day for 2 days; feces one day after administration; before administration 8.1
Protocol: as §1, §2, §3
a species of NBGT agar 37° C., for 5 days,7 -Bacteroides anaer

[7] = tested on: Escherichia coli IFO 12734; assay: Anti-bacterial activity, agar plate dilution method (MIC), Escherichia coli; format: cell-based; conditions: 18 to 24 hours, 37° C.; for Minimum concentration of inhibiting growth of Escherichia coli (MIC): Mueller-Hinton agar; for MIC: IFO12734, Mueller-Hinton agar, read-out: Minimum concentration of inhibiting growth of Escherichia coli (MIC)
Protocol: (§4) 3-1: The minimum growth-inhibiting concentration (MIC) of each of the compounds represented by the formula (I) was measured according to the standard procedures of Japan Society of Chemotherapy against each of the following bacterial species:
Escherichia coli, IFO 12734 and
(§5) Anti-bacterial activity of each of the compounds produced in Examples 1 to 6 was measured according to the standard procedures of Japan Society of Chemotherapy in agar plate dilution method as follows:
(§6) As a test bacterial species, Escherichia coli IFO 12734 and Staphylococcus aureus IAM 1011, and each strain was inoculated into Mueller-Hinton's culture medium for 18 to 48 hours at 37° C., and while using the thus cultured bacteria, each of the test bacterial liquid containing 10^6 cells in one ml was prepared.
(§7) Separately, after preparing each series of diluted aqueous solutions of each of the compounds produced in Examples 1 to 6, respectively, each of them was mixed in amount of 1/9 time by weight with the Mueller-Hinton's culture medium and each flat agar culture plate was prepared by using the thus formed mixture.

[8] = tested on: Staphylococcus aureus IAM 1011; assay: Anti-bacterial activity, agar plate dilution method (MIC), Staphylococcus aureus; format: cell-based; conditions: 18 to 24 hours, 37° C.; for Minimum concentration of inhibiting growth of Staphylococcus aureus (MIC): Mueller-Hinton agar; for MIC: IAM1011, Mueller-Hinton agar, read-out: Minimum concentration of inhibiting growth of Staphylococcus aureus (MIC)
Protocol: as §4
Staphylococcus aureus, IAM 1011
as §5, §6, §7

[9] = tested on: Staphylococcus aureus IAM 1011; assay: Model test for verifying the activation in living body: growth-inhibition circle with/without rat liver S-9 mix; format: cell-based; conditions: 20 min at 37° C., then 18 hours at 37° C.; for Sign: diameter of growth-inhibiting circle as percentage of that due to compound of formula (II), with the addition of S-9 mix: with the addition of S-9 mix (rat liver homogenate)
Protocol: On each flat culture plate prepared by adding 10^8 cells/ml of a preliminarily cultured Staphylococcus aureus IAM 1011 into 50 times by weight of Mueller-Hinton's agar culture medium, a penicillin cup of 8 mm in diameter was placed, and into each cup 0.1 ml of each of the compounds represented by the formula (I) or 0.1 ml of a cultured product of each of the compounds represented by the formula (I) together with a rat liver homogenate (containing a metabolism-activating enzyme, referred to as S-9 mix) was introduced. The diameter of each growth-inhibition circle formed around the cup after incubating the flat culture plate with the cup for 18 hours at 37° C. was measured, and the thus obtained value was compared to the value obtained by the same procedures except for using the compound represented by the formula (II), the starting compound instead of each of the compounds represented by the formula (I).
As a metabolism-activating enzyme, a rat liver homogenate (S-9, manufactured by Oriental Yeast Co.) was used in the following composition (referred to as S-9 mix, hereinafter):
After mixing 0.1 ml of a solution of the compound to be tested with 0.9 ml of S-9 mix or 0.9 ml of 0.1M phosphoric acid buffer solution, the mixture was subjected to shaking culture for 20 min at 37° C. to prepare a test reaction solution for use in the following experiment.
Staphylococcus aureus IAM 1011 was inoculated to Mueller-Hinton's culture medium and the inoculum was cultured for 18 hours at 37° C. and after adjusting the number of the bacterial cells to 10^8 /ml of the culture medium, 50 times by weight of the Mueller-Hinton's agar culture medium were added to the cultured medium to prepare flat culture plates.
After placing a penicillin-cup of 8 mm in diameter on each of the thus prepared flat culture plates, 0.1 ml of the above-mentioned test reaction solution was introduced into the penicillin-cup, and after leaving the system for 2 hours at 4° C., the system was incubated for 18 hour at 37° C., and the diameter of the growth-inhibition circle around the cup on the culture plate was determined.
The thus obtained diameter of the growth-inhibiting circle due to each of the compounds produced respectively in Examples 1 to 6 was compared to that due to the compound repesente by the formula (II), substituted cephalosporanic acid by percentage, and the following signs were respectively given to the respective compounds as follows: […]

[10] = compared to that before administration

Compound | number of cells of Escherichia coli after administration (in words) [1, 10] | Log10 value of the number of bacterial cells/g of feces, Escherichia coli [1] | Log10 value of the number of bacterial cells/g of feces, Pseudomonas aeruginosa [2] | Log10 value of the number of bacterial cells/g of feces, a species of Streptococcus [3] | number of a certain species of Lactobacillus after administration (in words) [4, 10] | Log10 value of the number of bacterial cells/g of feces, a species of Lactobacillus [4] | Log10 value of the number of bacterial cells/g of feces, Lactobacillus bifidus [5] | Log10 value of the number of bacterial cells/g of feces, a species of Bacterioides [6] | Minimum concentration of inhibiting growth of Escherichia coli (MIC) [7] [microgram/ml] | Minimum concentration of inhibiting growth of Staphylococcus aureus (MIC) [8] [microgram/ml] | Sign: diameter of growth-inhibiting circle as percentage of that due to compound of formula (II), with the addition of S-9 mix [9] | Sign: diameter of growth-inhibiting circle as percentage of that due to compound of formula (II), without adding S-9 mix [9] | MIC [7] [µg/mL] | MIC [8] [µg/mL]
CO[C@@]1(NC(=O)CSCC#N)C(=O)N2C(C(=O)O)=C(CSc3nnnn3C)CS[C@@H]21 [CEFMETAZOLE, reference compound] | showed an increase | < 3.0 Log10 cells/g of feces | 7.0 Log10 cells/g of feces | < 3.0 Log10 cells/g of feces | showed a reduction | 4.0 Log10 cells/g of feces | 3.8 Log10 cells/g of feces | 4.6 Log10 cells/g of feces | – | – | – | – | – | –
COC1(NC(=O)CSCC#N)C(=O)N2C(C(=O)Nc3ccc(C(=O)O)cc3)=C(CSc3nnnn3C)CSC21 (stereo not drawn) [Example 1, N-(4-carboxyphenyl)-{7-beta-cyanomethylthioacetamido-7-alpha-methoxy-3-[(1-methyl-1H-tetrazol5-yl)thio]methyl-3-cepheme-4-carboxylic}amide] | – | 7.2 Log10 cells/g of feces | < 3.0 Log10 cells/g of feces | 6.0 Log10 cells/g of feces | – | 8.9 Log10 cells/g of feces | 8.0 Log10 cells/g of feces | 8.1 Log10 cells/g of feces | ≥ 100 | ≥ 100 | + (1 to 33) | - (0) | – | –
COC(=O)c1ccc(NC(=O)C2=C(CSc3nnnn3C)CSC3N2C(=O)C3(NC(=O)CSCC#N)OC)cc1 (stereo not drawn) [Example 2, N-(4-carbomethoxyphenyl)-{7-beta-cyanomethylthioacetamido-7-alpha-methoxy-3-[(1-methyl-1H-tetrazol-5-yl)thio]methyl-3-cepheme-4-carboxylic}amide] | – | 6.6 Log10 cells/g of feces | < 3.0 Log10 cells/g of feces | 6.2 Log10 cells/g of feces | – | 9.1 Log10 cells/g of feces | 8.0 Log10 cells/g of feces | 8.0 Log10 cells/g of feces | ≥ 100 | ≥ 100 | + (1 to 33) | - (0) | – | –
COC(=O)Cc1ccc(NC(=O)C2=C(CSc3nnnn3C)CS[C@H]3N2C(=O)[C@]3(NC(=O)CSCC#N)OC)cc1 [Example 3, N-(4-carbomethoxymethylphenyl)-{7-betacyanomethylthioacetamido-7-alpha-methoxy-3-[(1-methyl-1H-tetrazol-5-yl)thio]methyl-3-cepheme-4-carboxylic}amide] | – | 7.1 Log10 cells/g of feces | < 3.0 Log10 cells/g of feces | 6.0 Log10 cells/g of feces | – | 9.1 Log10 cells/g of feces | 7.9 Log10 cells/g of feces | 8.0 Log10 cells/g of feces | – | – | ± (0 to 1) | - (0) | ≥ 100 | ≥ 100
CO[C@@]1(NC(=O)CSCC#N)C(=O)N2C(C(=O)Nc3ccc(O)cc3)=C(CSc3nnnn3C)CS[C@@H]21 [Example 5, N-(4-hydroxyphenyl)-{7-beta-cyanomethylthioacetamido-7-alpha-methoxy-3-[(1-methyl-1H-tetrazol-5-yl)thio]methyl-3-cepheme-4-carboxylic}amide] | – | 6.7 Log10 cells/g of feces | < 3.0 Log10 cells/g of feces | 6.6 Log10 cells/g of feces | – | 9.0 Log10 cells/g of feces | 8.2 Log10 cells/g of feces | 7.9 Log10 cells/g of feces | – | – | + (1 to 33) | - (0) | ≥ 100 | ≥ 100
